Measured values from patent US11382921B2, “Use of compounds in preparation of a medicament for treatment of hemorrhagic stroke” (priority 2017, dated 2022).

Experiments:
[1] = tested on: C57B mouse model of cerebral hemorrhage; experiment: Determination of intracerebral hemorrhage (hemorrhage area, brain hemoglobin content) in collagenase-induced intracerebral hemorrhage model; format: in vivo; details: C57B mice
Procedure: (§1) 112 clean grade health C57 male mice (8˜10 week, 20-22 g) were purchased from Beijing Vital River Laboratory Animal Technology Co. Ltd. Feeding conditions: 22° C.˜26° C., humidity 50%˜60%. The mice were grouped, fed with standard feed and purified water, and subjected to adaptive feeding for 1 week.
Establishment of Intracerebral hemorrhage model: After weighing body weight of mice, anesthesia was induced by 5% enflurane, and maintained by 2% enflurane mixed with 70% N2O and 30% O2. Mice were fixed on a stereotactic apparatus in the prone position and disinfected topically. The skin of the animals was incised to expose the skull for drilling. 0.3 μl of 0.35UVII collagenase was slowly injected with a micro sampler. The needle was kept for 5 min then slowly pulled out for 5 min, and the skull drilling was covered by bone glue. Animals were sutured, and subjected to routine disinfection. In the sham operation group, the needle was inserted in the same way, but without injection. The solvent or Triol was administered by intraperitoneal injection at 60 mg/kg 1 h after modeling. […]
chloral hydrated peritoneal was injected intraperitoneally for anesthesia at 24 hours after modeling. […] The hemoglobin content in the brain was measured with a hemoglobin detection kit.

[2] = tested on: C57B mouse model of cerebral hemorrhage; experiment: Neurobehavioral scoring (circle test, adhesive paper test, modified Garcia score) in collagenase-induced intracerebral hemorrhage model; format: in vivo; details: C57B mice, 60 mg/kg i.p. 1 h after modeling
Procedure: FIG. 2. […] A. Circle test; Adhesive paper test; B. Time duration for contacting adhesive paper; C. Time consumption to tear off adhesive paper; *p<0.05, ***p<0.001, n=12˜23 animals/group. con: normal; sham: sham-operated group; ICH: cerebral hemorrhage model; vehicle: solvent.
FIG. 3. […] Modified Garcia score (A-D) is used to evaluate somatosensory and motor function at 24 hours after cerebral hemorrhage in C57B mice: A. Nose hair contact test; B. Limb symmetry test; C. Forelimb walking test, D. Overall nerve function Score; n=12˜23 animals/group, *p<0.05, **p<0.01, ***p<0.001. con: normal; sham: sham-operated group; ICH: cerebral hemorrhage model; vehicle: solvent.
as §1
Establishment of Intracerebral hemorrhage model: After weighing body weight of mice, anesthesia was induced by 5% enflurane, and maintained by 2% enflurane mixed with 70% N2O and 30% O2. Mice were fixed on a stereotactic apparatus in the prone position and disinfected topically. The skin of the animals was incised to expose the skull for drilling. 0.3 μl of 0.35UVII collagenase was slowly injected with a micro sampler. The needle was kept for 5 min then slowly pulled out for 5 min, and the skull drilling was covered by bone glue. Animals were sutured, and subjected to routine disinfection. In the sham operation group, the needle was inserted in the same way, but without injection. The solvent or Triol was administered by intraperitoneal injection at 60 mg/kg 1 h after modeling.
C57 mice were divided into 5 groups using random number method, namely normal control group (n=12), sham operation group (n=12), cerebral hemorrhage group (n=26), cerebral hemorrhage+solvent intraperitoneal injection 1 h after modeling group (n=26), and cerebral hemorrhage+Triol intraperitoneal injection 1 h after modeling group (n=26).
The neurological function was measured 24 hours after the cerebral hemorrhage model was established.

## C[C@@]12CCCC1C1C[C@@H](O)[C@@]3(O)C[C@@H](O)CC[C@]3(C)C1CC2 (stereo partly drawn) [Triol, 5α-androst-3β,5,6β-triol]
[1]; 60 mg/kg i.p. 1 h after modeling, 24 h, vs cerebral hemorrhage model group, p<0.01 (FIG. 1B)
  hemoglobin content of the hemorrhagic hemisphere (amount of hemorrhage): decreased significantly
[1]; Triol 60 mg/kg intraperitoneal 1 h after modeling, 24 h later (FIG. 1A)
  hemorrhage area (volume) of the hemisphere brain with collagenase injection: significantly reduced
[2]; 24 h, p<0.001 (FIG. 2C)
  adhesive paper test: time consumption to remove adhesive paper: significantly reduced
[2]; 24 h, p<0.001 (FIG. 3A)
  modified Garcia score: beard touch avoidance (nose hair contact test): significantly restored
[2]; 24 h, p<0.001 (FIG. 3D)
  neurological function scores (overall, modified Garcia): significantly improved
[2]; 24 h, p<0.01 (FIG. 3B)
  modified Garcia score: symmetry of the limbs' movement: significantly improved
[2]; 24 h, p<0.05 (FIG. 2B)
  adhesive paper test: time duration for contacting adhesive paper: significantly reduced
[2]; 24 h, p<0.05 (FIG. 3C)
  modified Garcia score: forelimb walking: significantly improved
[2]; 24 h after cerebral hemorrhage (FIG. 2A)
  circle test: time taken to go out of the center of the circle to any point of the circle edge: has a tendency to decrease
